Earlier results as cited in patent publication US20040241255A1, “Pharmaceutical composition containing valerina officinalis extract” (priority 2001, published 2004).

System: apnea during NREM sleep in rats
Settings: injected intraperitoneally

**Q.** With OC[C@H]1O[C@@H](n2cnc3c(N[C@H]4CCC[C@@H]4O)ncnc32)[C@H](O)[C@@H]1O (relative stereo) [N-[(1S,trans)-2-hydroxycyclopentyl]-adenosine] as the compound, how does the “Suppression of apnea during NREM sleep” value read?
**A.** dose-dependent suppression of apnea

**Q.** For CCNC(=O)C1OC(n2cnc3c(N)nc(NCCc4ccc(CCC(=O)O)cc4)nc32)C(O)C1O.Cl (stereo not drawn) [2-p-(2-carboxyethyl)-phenethyl-amino-5′-N-ethylcarboxamido-adenosine hydrochloride], which “Suppression of apnea during NREM sleep” value is on record?
**A.** dose-dependent suppression of apnea

**Q.** For C[C@H](Cc1ccccc1)Nc1ncnc2c1ncn2[C@@H]1O[C@H](CO)[C@@H](O)[C@H]1O [phenylisopropyl adenosine], which “Suppression of apnea during NREM sleep” value is on record?
**A.** dose-dependent suppression of apnea
